This note sets out measurements from PubChem BioAssay (NCI).

The TGI is the concentration giving total growth inhibition. The low end stands for more potent growth arrest, the high end for less potent growth arrest.

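Each compound was tested at five concentrations against cells in 96-well plates for 48 hours. TGI denotes the concentration required for complete inhibition of growth.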

Test systems include 786-0 renal; A549 NSCLC; HCC-2998 colon; HCT-116 colon; HCT-15 colon; HOP-62 NSCLC; HS 578T breast; K-562 leukemia; MALME-3M melanoma; NCI-H23 lung; OVCAR-3 ovarian; OVCAR-5 ovarian; OVCAR-8 ovarian; RXF 393 renal; SF-268 CNS; SF-295 CNS; SK-MEL-28 melanoma; SK-OV-3 ovarian; UACC-62 melanoma.
What all share (experiment): DTP human tumour cell line panel, 48 h

Take `COC(=O)[C@@H](NC(=O)[C@H](N)Cc1ccc(N(CCCl)CCCl)cc1)C(C)C`: the TGI in the test on 786-0 renal was 49.7 µM; in the test with A549 NSCLC, greater than 100 µM; in the test with HCC-2998 colon, 26.5 µM; in the test with HCT-116 colon it was 44.1 µM; in the test on HCT-15 colon, 72.8 µM; in the test with HOP-62 NSCLC it was greater than 100 µM. Also, the TGI in the test with HS 578T breast is 77.7 µM; in the test on K-562 leukemia, 40.3 µM; in the test on MALME-3M melanoma, 6.19 µM; in the test on NCI-H23 lung, 16.8 µM; in the test on OVCAR-3 ovarian, greater than 72.8 µM; in the test on OVCAR-5 ovarian, greater than 100 µM. Also, the TGI was 27.8 µM with OVCAR-8 ovarian; 55.5 µM in the test with RXF 393 renal; 97.1 µM in the test with SF-268 CNS; greater than 100 µM in the test with SF-295 CNS; 40.4 µM in the test on SK-MEL-28 melanoma; greater than 100 µM in the test with SK-OV-3 ovarian. The compound further had a TGI in the test on UACC-62 melanoma of 13.4 µM.

On to `CC(C)(C)C1=CC(=C2C=Cc3cc(O)ccc3O2)C=C(C(C)(C)C)C1=O`, for which the TGI turned out to be 2.68 µM in the test on 786-0 renal; 3.04 µM in the test on A549 NSCLC; 2.54 µM with HCC-2998 colon; 2.43 µM in the test on HCT-116 colon; 5.51 µM with HCT-15 colon; 4.02 µM in the test on HOP-62 NSCLC. For the same compound, the TGI worked out at 8.22 µM with HS 578T breast; 8.51 µM in the test with K-562 leukemia; 3.16 µM in the test with MALME-3M melanoma; 3.58 µM with NCI-H23 lung; 2.72 µM with OVCAR-3 ovarian; 3.94 µM with OVCAR-5 ovarian. Besides, the TGI in the test with OVCAR-8 ovarian is 3.79 µM; in the test on RXF 393 renal, 3.16 µM; in the test with SF-268 CNS it was 3.87 µM; in the test with SF-295 CNS it was 3.45 µM; in the test on SK-MEL-28 melanoma it was 3.64 µM; in the test on SK-OV-3 ovarian, 4.09 µM. In the test with UACC-62 melanoma, this compound displayed a TGI of 2.76 µM.

Consider `Cc1nc2c(O)c3c(c(O)c2nc1C)C1C=CC3CC1`, for which the TGI is 27.6 µM with 786-0 renal; 63.5 µM in the test with A549 NSCLC; greater than 59.2 µM with HCC-2998 colon; 17.3 µM in the test with HCT-116 colon; 34.8 µM with HCT-15 colon; 36.4 µM in the test with HOP-62 NSCLC. For the same compound, the TGI in the test with HS 578T breast amounted to 78.3 µM; in the test with K-562 leukemia it was 4.31 µM; with MALME-3M melanoma it was 26.1 µM; in the test on NCI-H23 lung it was 26.5 µM; with OVCAR-3 ovarian, 21.2 µM; in the test with OVCAR-5 ovarian, 34.9 µM. Also, the TGI with OVCAR-8 ovarian came to 20.9 µM; in the test on RXF 393 renal, 22.6 µM; with SF-268 CNS, 32.9 µM; in the test on SF-295 CNS, 47.2 µM; in the test with SK-MEL-28 melanoma, 30.8 µM; in the test on SK-OV-3 ovarian it was 55.2 µM. This compound also came in with a TGI in the test with UACC-62 melanoma of 67.2 µM.

As to `CCOC(=O)CC(=O)Nc1cccc2sc3ncccc3c(=O)c12`, the TGI with 786-0 renal, in the test on A549 NSCLC, with HCC-2998 colon, in the test with HCT-116 colon, in the test on HCT-15 colon and in the test with HOP-62 NSCLC was greater than 100 µM throughout. Further, the TGI in the test with HS 578T breast, in the test with K-562 leukemia, in the test on MALME-3M melanoma, with NCI-H23 lung, in the test with OVCAR-3 ovarian and with OVCAR-5 ovarian was greater than 100 µM throughout. Moreover, the TGI is greater than 100 µM with OVCAR-8 ovarian; 35.8 µM in the test on RXF 393 renal; greater than 100 µM in the test on SF-268 CNS; greater than 100 µM in the test with SF-295 CNS; greater than 100 µM with SK-MEL-28 melanoma; greater than 100 µM in the test with SK-OV-3 ovarian. The compound further registered a total growth inhibition concentration (TGI) in the test on UACC-62 melanoma greater than 100 µM.

In the case of `C[C@H](CCC(=O)NCCS(=O)(=O)O)[C@H]1CC[C@H]2[C@@H]3[C@H](O)C[C@@H]4C[C@H](O)CC[C@]4(C)[C@H]3CC[C@]12C`, the TGI with 786-0 renal, in the test with A549 NSCLC, in the test with HCC-2998 colon, with HCT-116 colon, with HCT-15 colon and with HOP-62 NSCLC was greater than 100 µM each time. The TGI in the test on HS 578T breast, in the test on K-562 leukemia, in the test on MALME-3M melanoma, with NCI-H23 lung, in the test with OVCAR-3 ovarian and in the test with OVCAR-5 ovarian was greater than 100 µM in each case. Also, the TGI in the test with OVCAR-8 ovarian, in the test on RXF 393 renal, in the test with SF-268 CNS, in the test on SF-295 CNS, in the test with SK-MEL-28 melanoma and with SK-OV-3 ovarian was greater than 100 µM in each case. The TGI with UACC-62 melanoma is greater than 100 µM.

`CC(=O)O[C@H]1CC[C@H]2[C@@H]3CCC4=C/C(=N/OCCN(C)C)CC[C@]4(C)[C@H]3CC[C@]12C`: the TGI with 786-0 renal is 22.8 µM; in the test with A549 NSCLC, 25.6 µM; with HCC-2998 colon, 19 µM; with HCT-116 colon, 16 µM; with HCT-15 colon, 12.8 µM; in the test with HOP-62 NSCLC it was 27.5 µM. The concentration for total growth inhibition (TGI) was 34.1 µM in the test with HS 578T breast; greater than 21.2 µM in the test with K-562 leukemia; 28.6 µM in the test on MALME-3M melanoma; 25.6 µM in the test with NCI-H23 lung; 26.7 µM with OVCAR-3 ovarian; 31.9 µM with OVCAR-5 ovarian. Besides, the TGI in the test with OVCAR-8 ovarian amounted to 28.1 µM; in the test with RXF 393 renal it was 27.8 µM; in the test with SF-268 CNS, 27.5 µM; in the test with SF-295 CNS it was 17.5 µM; with SK-MEL-28 melanoma, 27.8 µM; with SK-OV-3 ovarian it was 24.6 µM. This compound also returned a TGI in the test on UACC-62 melanoma of 15.4 µM.

With `C[C@@H](NC(=O)Cn1c(Cl)nc2ccccc21)c1ccccc1`, the TGI in the test with 786-0 renal, in the test with A549 NSCLC, with HCC-2998 colon, with HCT-116 colon, in the test on HCT-15 colon and with HOP-62 NSCLC was greater than 100 µM each time. Further, the TGI in the test with HS 578T breast, in the test with K-562 leukemia, in the test on MALME-3M melanoma, in the test with NCI-H23 lung, with OVCAR-3 ovarian and in the test on OVCAR-5 ovarian was greater than 100 µM each time. Further, the TGI in the test on OVCAR-8 ovarian, with RXF 393 renal, in the test on SF-268 CNS, with SF-295 CNS, in the test on SK-MEL-28 melanoma and in the test with SK-OV-3 ovarian was greater than 100 µM each time. In the test on UACC-62 melanoma, this compound returned a TGI greater than 100 µM.
